Assay results published in patent US20040180395A1, “Method for detecting calpain3 activity in a biological sample and peptides for implementing said method” (priority 2001, published 2004).
Primed or numbered codes have the meaning given here. The star is where a group is joined. Mca = COc1ccc2c(CC(=O)*)cc(=O)oc2c1; Dnp′ = not defined here

Experiments:
[1] = biological target: T1, Calpain 1 (Homo sapiens, UniProt P07384); test: Assay of specificity of autolytic-site peptide cleavage (FRET fluorescence) by commercial calpain 1; assay type: biochemical; conditions: calpain 1, human erythrocytes; 10 mM CaCl2; peptide 1.9 μM; 37° C.; FIG. 2
T1 construct: Calpain 1: human erythrocytes (Calbiochem); purchased Calbiochem; host or cells: human erythrocytes
T1 sequence (P07384 1-714): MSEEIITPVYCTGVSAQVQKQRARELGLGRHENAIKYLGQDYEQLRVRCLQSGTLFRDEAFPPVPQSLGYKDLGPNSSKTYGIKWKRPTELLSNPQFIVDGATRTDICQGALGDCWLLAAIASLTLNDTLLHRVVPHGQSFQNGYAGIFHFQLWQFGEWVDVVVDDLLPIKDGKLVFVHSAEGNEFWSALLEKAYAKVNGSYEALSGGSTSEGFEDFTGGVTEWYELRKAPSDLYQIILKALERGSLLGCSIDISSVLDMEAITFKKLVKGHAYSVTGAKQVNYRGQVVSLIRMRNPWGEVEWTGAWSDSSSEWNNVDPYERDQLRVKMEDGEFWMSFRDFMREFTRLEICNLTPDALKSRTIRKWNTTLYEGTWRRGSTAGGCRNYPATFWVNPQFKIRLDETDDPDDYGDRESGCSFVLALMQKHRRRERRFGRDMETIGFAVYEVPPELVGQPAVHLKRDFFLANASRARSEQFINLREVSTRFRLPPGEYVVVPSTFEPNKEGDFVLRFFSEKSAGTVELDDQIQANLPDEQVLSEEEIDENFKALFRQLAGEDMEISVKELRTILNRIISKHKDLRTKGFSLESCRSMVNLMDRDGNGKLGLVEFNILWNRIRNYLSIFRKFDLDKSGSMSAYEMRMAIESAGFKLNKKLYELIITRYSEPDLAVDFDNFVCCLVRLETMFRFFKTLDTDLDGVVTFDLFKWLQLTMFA
T1 sequence (P04632 1-268 partner): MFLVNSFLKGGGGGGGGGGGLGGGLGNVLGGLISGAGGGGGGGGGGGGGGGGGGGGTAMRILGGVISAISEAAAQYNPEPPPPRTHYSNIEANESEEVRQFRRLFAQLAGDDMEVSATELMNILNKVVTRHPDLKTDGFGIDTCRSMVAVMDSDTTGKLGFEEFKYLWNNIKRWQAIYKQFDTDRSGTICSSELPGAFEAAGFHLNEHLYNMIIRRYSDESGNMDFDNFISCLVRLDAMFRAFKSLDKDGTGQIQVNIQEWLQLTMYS
Method: (§1) 1/ Fluorometer: SpectraMax Gemini XS Microplate fluoro-meter (molecular Devices).
Calpain 1: human erythrocytes (Calbiochem)
(§2) Final volume of 200 μl; calcium (CaCl2) 10 mM final concentration; fluorescent peptides 1.9 μM final concentration.
(§3) The reaction is carried out at 37° C., either over one hour (with in this case measurement of fluorescence every 50 seconds) or over 6 hours (measurement every 2 minutes).
(§4) The medium is agitated between each measurement. The wavelengths used for detecting the fluorescence of the peptides are:
(§5) Excitation wavelengths of Mca: 325 nm.
(§6) Emission wavelengths of […]: 392 nm.
(§7) Resuspension buffer for commercial calpains: 100 mM NaCl, 5 mM EDTA, 50 Mm TrisHCl, 5 mM β-mercaptoethanol, 40% glycerol, pH=7.8. Storage at ambient temperature. Resuspension buffer for the fluorescent peptides: the peptides are resuspended at 1 mg/ml in 100% DMSO.
(§8) Reaction buffer: 100 mM NaCl, 50 mM HEPES, 10 mM DTT, 1 mM EDTA, 10% glycerol, 0.1% CHAPS, 100 ng/μl BSA, pH=7.4, filtration. Storage at ambient temperature.
(§9) Before verifying whether calpain 3 can cleave the peptides corresponding to its autolytic sites, a first assay consisted in verifying that these peptides (site 1, site 2, site 3) could not be cleaved by other proteases, in particular by ubiquitous calpains (see FIG. 2).

[2] = biological target: T2, Calpain 2 (Rattus norvegicus, UniProt Q07009); test: Assay of specificity of autolytic-site peptide cleavage (FRET fluorescence) by commercial calpain 2; assay type: biochemical; conditions: calpain 2, rat recombinant; 10 mM CaCl2; peptide 1.9 μM; 37° C.; FIG. 2
T2 construct: purchased Calbiochem; host or cells: E. coli
T2 sequence (Q07009 1-700): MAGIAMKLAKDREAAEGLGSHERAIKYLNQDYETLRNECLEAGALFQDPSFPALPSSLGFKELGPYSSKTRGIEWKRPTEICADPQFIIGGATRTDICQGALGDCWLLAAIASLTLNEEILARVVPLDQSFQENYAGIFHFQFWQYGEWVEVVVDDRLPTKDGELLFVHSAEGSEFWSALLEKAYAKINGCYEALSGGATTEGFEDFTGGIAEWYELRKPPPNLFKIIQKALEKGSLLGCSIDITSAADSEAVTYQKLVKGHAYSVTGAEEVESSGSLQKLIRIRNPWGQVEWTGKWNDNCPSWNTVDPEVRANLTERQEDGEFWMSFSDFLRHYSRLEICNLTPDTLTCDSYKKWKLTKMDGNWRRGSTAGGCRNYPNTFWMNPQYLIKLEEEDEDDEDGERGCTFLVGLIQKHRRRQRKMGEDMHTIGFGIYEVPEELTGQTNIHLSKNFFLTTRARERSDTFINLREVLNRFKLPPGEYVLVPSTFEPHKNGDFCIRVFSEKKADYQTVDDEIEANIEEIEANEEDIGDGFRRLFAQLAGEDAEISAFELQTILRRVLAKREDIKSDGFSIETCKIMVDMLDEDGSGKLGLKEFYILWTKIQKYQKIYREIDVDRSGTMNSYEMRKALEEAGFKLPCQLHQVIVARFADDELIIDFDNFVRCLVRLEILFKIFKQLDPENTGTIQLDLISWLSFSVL
T2 sequence (Q64537 87-270 partner limits assumed): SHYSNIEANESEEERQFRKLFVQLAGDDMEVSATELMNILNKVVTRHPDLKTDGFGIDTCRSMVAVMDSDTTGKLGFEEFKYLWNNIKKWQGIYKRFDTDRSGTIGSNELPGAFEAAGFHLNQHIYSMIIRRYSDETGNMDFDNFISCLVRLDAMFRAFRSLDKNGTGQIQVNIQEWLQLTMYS
Method: as §1
Calpain 2: rat, recombinant, E. coli (Calbiochem)
as §2, §3, §4, §5, §6, §7, §8, §9

[3] = test system: calpain 3; test: Cleavage of autolytic-site peptides by extracts of C2C12 cells transfected or not transfected with the plasmid encoding calpain 3; assay type: biochemical, murine; conditions: FIG. 3; for difference in cleavage activity between calpain 3-transfected and untransfected cells: C2C12 extracts, efficiency of transfection less than 10%; for activity of C2C12 extracts on the peptide (fluorescence): transfected or untransfected C2C12 extracts
Method: as §2, §3, §5, §6, §8
Cell Lines Used: C2C12: murine myoblasts;
Medium used for C2C12: DMEM+10% FCS
The desired cells are trypsinized and then the wells are seeded in such a way that the cells are at 50-80% confluency the following day.
Allow the cells to grow at 37° C./7% CO2.
(§10) Principle: The animal cells, which may or may not be transfected, are lysed for the purpose of preparing protein extracts the properties of which may be studied.
(§11) The culture medium is removed from the wells and the wells are washed with PBS (phosphate buffered Dulbecco solution (without calcium, or magnesium, or sodium bicarbonate)—Gibco BRL).
(§12) The cells are harvested and centrifuged at 500 g for 10 min at 4° C.
(§13) The supernatant is removed and the cells are taken up in the lysis buffer (50 mM HEPES, 1 mM DTT, 0.1 mM EDTA, 0.1% CHAPS, pH=7.4) in a proportion of 700 μl of lysis buffer per well.
(§14) The buffer is allowed to act at 4° C. for 5 minutes. Centrifugation is carried out at 10 000 g/10 minutes/4° C.
(§15) The supernatant is recovered and stored at −20° C.
It is known that calpain 3 has greater stability in muscle cells due to the presence of titin. For the purpose of proving that calpain 3 could cleave its own autolytic sites, it was therefore overexpressed in C2C12 cells by transfecting these cells with a plasmid encoding calpain 3. A control transfection with pECFP was carried out at the same time as the transfection with the plasmid encoding calpain 3. The efficiency of transfection on the C2C12s is less than 10%. The proteins were then extracted and their activity was assayed on the autolytic sites (FIG. 3).

[4] = test system: calpain 3; test: Cleavage of autolytic-site peptides by extracts of normal (+/+) or calpain 3-deficient (−/−) mouse myoblasts; assay type: biochemical; conditions: myoblast extracts; for cleavage activity on the peptide / difference in cleavage activity between +/+ and −/− cells: reaction over 1 h, FIG. 4; for cleavage activity, +/+ versus −/− cell extracts: reaction over 6 h, FIG. 6
Method: as §2, §3, §5, §6, §8, §10, §11, §12, §13, §14, §15
The system is then assayed on extracts of cell cultures deficient or not deficient in calpain 3. To do this, mice deficient for the calpain 3 gene, for which myogenic cell cultures have been derived [Richard, 2000], are used. Extracts of cultures of calpain 3-deficient muscle cells (−/−cells) can therefore be compared with extracts of cultures of normal muscle cells (+/+cells). Initially, the assay was carried out on undifferentiated cells (myoblasts) (FIG. 4).

[5] = test system: calpain 3; test: Cleavage of autolytic-site peptides by extracts of normal (+/+) or calpain 3-deficient (−/−) mouse quadriceps; assay type: biochemical; conditions: quadriceps lysates, over 6 hours; FIG. 7
Method: as §2, §3, §5, §6, §8
Principle: The muscles are ground for the purpose of preparing protein extracts the properties of which may then be studied.
Material: Quadriceps of normal mice and of calpain 3-deficient mice.
The muscles are ground in liquid nitrogen. The ground material is resuspended in the lysis buffer (cf. composition in the cell lysis protocol above) in a proportion of 19 μl of lysis buffer per milligram of ground tissue.
The buffer is allowed to act for 10 minutes in ice. Centrifugation is carried out at 10 000 g for 10 minutes at 4° C.
as §15
Activity assays were also carried out on lysates of muscles from mice deficient or not deficient in calpain 3. The assays were carried out using quadriceps lysates (FIG. 7).

[6] = test system: calpain 3; test: Cleavage of autolytic site 3 peptide by extracts of normal (+/+) or calpain 3-deficient (−/−) mouse myotubes; assay type: biochemical; conditions: myotube extracts; FIG. 5
Method: as §2, §3, §5, §6, §8, §10, §11, §12, §13, §14, §15
Specifically, calpain 3 is theoretically expressed more in myotubes than in myoblasts.

cleavage activity on the peptide (fluorescence over time vs peptide without enzyme) [1]	cleavage activity on the peptide (fluorescence over time vs peptide without enzyme) [2]	Substance	difference in cleavage activity between calpain 3-transfected and untransfected cells [3]	activity of C2C12 extracts on the peptide (fluorescence) [3]	cleavage activity on the peptide [4]	cleavage activity, +/+ versus −/− cell extracts [4]	activity of cleavage, +/+ versus −/− tissue extracts [5]	difference in cleavage activity between +/+ and −/− cells [4]	cleavage activity, −/− versus +/+ cell extracts [6]
no cleavage activity	no cleavage activity	Mca-NMDNISLL-Dnp [site 2]	no difference can be detected	slight increase in fluorescence	No cleavage activity could be detected	greater in extracts of +/+cells	by the +/+ tissue extracts is greater than that of the −/−tissue extracts	–	–
no cleavage activity	no cleavage activity	Mca-NMTYGTS-Dnp (Mca-NMTYGTS-{Dnp′}) [site 1, fluorescent FRET peptide of calpain 3 autolytic site 1, Mca donor and Dnp acceptor]	no difference can be detected	slight increase in fluorescence	low cleavage activity	greater in extracts of +/+cells	by the +/+ tissue extracts is greater than that of the −/−tissue extracts	very small	–
no cleavage activity	no cleavage activity	Mca-PVQYETR-Dnp (Mca-PVQYETR-{Dnp′}) [site 3, fluorescent FRET peptide of calpain 3 autolytic site 3, Mca donor and Dnp acceptor]	greater in the transfected cells	–	Cleavage activity is detected	greater in extracts of −/−cells than in extracts of +/+cells	by the −/−tissue extracts is greater than that of the +/+tissue extracts	no difference in activity is visible	in the extracts of −/−cells is greater than in the extracts of +/+cells
